Assay results taken from US9089540B2, “Method for determination of sensitivity to anti-cancer agent” (KEIO UNIVERSITY, priority 2008, dated 2015).

Assays:
[1] = human, in vivo, 100 mg/m2
[2] = roughly corresponding to the cut off value; cited from earlier work
[3] = system: 5 kinds of human colorectal cancer cell lines (COLO320, HCT-15, HT-29, LS174T, HCT116); assay: Evaluation of SN-38 sensitivity, MTS assay (cell survival rate); type: cell-based; conditions: 72 hours exposure, range over 5 cell lines, read-out: IC50 value of each cell line (SN-38 sensitivity)
Procedure: After exposure of each cell line to 0 to 1,000 μmol/Loxaliplatin for 48 hours, a cell survival rate was evaluated with MTS assay (CellTiter96™ AQueous One Solution Cell Proliferation Assay, Promega). Then, IC50 value (a concentration at which the number of cells is suppressed to 50% with respect to that in an oxaliplatin-untreated well) was calculated and used as an oxaliplatin sensitivity in each cell line. The evaluation of the sensitivity was performed four times with cells having different passage numbers and the average value and the standard deviation value thereof were calculated.
As cells, 5 kinds of human colorectal cancer cell lines (COLO320, HCT-15, HT-29, LS174T, HCT116 (HCT116 was obtained from ECACC)), and as a drug, an irinotecan active metabolite (SN-38, obtained from Yakult Honsha, Co., Ltd.) were used. The cell survival rate after exposure to 0 to 1,000 nmol/L SN-38 for 72 hours was evaluated by MTS assay in the same manner as in Example 1 and the IC50 value was calculated. […] For the analysis, ProteinChip™ Reader (Model PCS4000 Personal Edition, Bio-Rad) was used, and the analysis was performed under the following conditions: mass range, 0 to 70,000 daltons; focus mass, 11,000 daltons; energy, 3,000 nJ; and 265 shots in total per sample. […]

[4] = Clinical blood exposure to SN-38 after irinotecan administration, calculated from interview form parameters; type: in vivo, human
Procedure: Based on the pharmacokinetic parameters of SN-38 (Campto™, interview form), the area under the curve of SN-38 blood concentration (AUCSN-38) obtained after the first irinotecan administration of the colon cancer therapy regimen (180 mg/m^2/day) was calculated to be 1,449 nmol·h/L. The concentration of SN38 required to obtain the same exposure amount through 72-hour exposure employed in this Example was calculated to be 20 nM. Therefore, a cut off value was set to 20 nM for the IC50 value of each cancer cell line with respect to SN-38 and the cancer cell lines were classified into two groups of a high sensitivity group and a low sensitivity group. As a result, there was a significant increase in the peak intensity of the peak detected at m/z of 11,000 to 11,100 in the low sensitivity group (FIG. 6).

N.N.[Cl][Pt][Cl] [cisplatin, cis-Diammineplatinum(II) dichrolide]
Cmax [1]: 9.5 to 11 µM

O=C1[O][Pt]2([NH][C@@H]3CCCC[C@H]3[NH]2)[O]C1=O [oxaliplatin, (SP-4-2)-[(1R,2R)-cyclohexane-1,2-diamine-κN,κN′][ethanedioato (2-)-κO^1,κO^2]platinum]
peak blood concentration at the time of clinical use [2]: ~5.0 µM

CCc1c2c(nc3ccc(O)cc13)-c1cc3c(c(=O)n1C2)COC(=O)[C@]3(O)CC [SN-38]
IC50 [3]: 3.39 to 33.7 nM | concentration of SN38 required to obtain the same exposure amount through 72-hour exposure ([4]; AUC equivalent over 72-hour exposure): 0.02 µM | area under the curve of SN-38 blood concentration (AUCSN-38) ([4]; after first irinotecan administration of colon cancer regimen, 180 mg/m^2/day): 1,449 nmol·h/L
